Reference: patent publication US5883079A, “Method for inhibiting H. pylori infection in mammalian tissue” (Neose Technologies, Inc., priority 1998, dated 1999)
Values joined by “and” are separate entries in the source; they are usually repeats but may differ in a detail not shown here. Identical values can stand only once. “Also recorded” adds a separate entry of the source.

How the values were obtained:
[1] = system: H. pylori binding to HuTu-80 cell monolayer; assay: H. pylori binding inhibition to HuTu-80 cell monolayers (microtiter, urease readout); format: cell-based, human (HuTu-80); H. pylori; conditions: for IC50: Homo sapiens, HuTu80; for activity in inhibiting binding of H. pylori cells, in vitro: in words
Method: The cultures were maintained in Basal medium Eagle containing 10% fetal calf serum in T-75 flasks, at 37° C. and a 5% CO2 atmosphere. Cells were harvested by trypsin/EDTA release and plated on 96-well flat bottom microtiter plates. The microtiter plates were incubated for 2-3 days until the monolayers grew to confluence. Prior to binding inhibition tests, the monolayer was washed with Hanks Balanced Salt solution (HBSS) containing Ca^+2 and Mg^+2, 0.1% BSA, 50 mM HEPES, 0.01 phenol red or HBHPR.
H. pylori bacteria isolates were obtained from B. Marshall (from the University of Virginia) and grown on sheep blood agar, collected at 48 h, washed and suspended in a binding buffer of HBSS+0.1% bovine serum albumin+50 mM HEPES buffer+0.01% phenol red or HBHPR.
The same concentration of bacteria and test compound were combined for 10 minutes, then transferred onto the monolayer. Binding was allowed to occur for 20 min at room temperature under mild agitation. The unbound bacteria was washed away with 1 wash of HBHPR, then 2 washes of the same buffer without HEPES buffer (HBPR).
The presence of bound bacteria is indicated by the presence of bacterial urease which generates NH3, which raises the pH and changes the color to purple, near at OD595.
IC50 in mg/ml was determined for each compound tested. The test data is reported below in Table 1:
IC50 S were determined using the HuTu-80 cell line monolayers.

[2] = system: Helicobacter pylori; conditions: in words; cited from earlier work
[3] = system: H. pylori; assay: In vivo animal test: H. pylori colonization in gnotobiotic piglets; parameters: bacterial colonies, colony forming units/gram of gastric epithelium, Experiment A / bacterial colonies, colony forming units/gram of gastric epithelium, Experiment B / bacterial colonies, colony forming units/gram of gastric epithelium, mean ± SD: scale not given here
Method: Gnotobiotic derived piglets (delivered by cesarean section and housed in a germ-free environment) were orally treated with 100 mg of 3'sialyl lactose in 5.0 ml of water.
(§1) Six day old gnotobiotic piglets were orally treated with seven doses of 100 mg each of 3' sialyl lactose, at about 8 hour intervals. As a control, the piglets were administered water. The third administration of 3' sialyl lactose and control was accompanied with 2×10^9 live H. pylori. Two piglets were administered 3'sialyl lactose and 2 piglets were administered the control.
as §1, with “Twenty one” for “Six”, “4×10^9” for “2×10^9”, “Four” for “Two”
The piglets were evaluated by determining bacterial colonies in blood-agar as colony forming units/gram of gastric epithelium (CFU/g). Gastric epithelium homogenates were plated on agar in serial 1:10 dilutions and bacterial colonies were counted on the plates, with 20-200 colonies/plate after 5 days.

[4] = system: Helicobacter pylori; assay: Effectiveness at inhibiting Helicobacter pylori when treating mammals, compared with fetuin; parameters: species or system mammals; H. pylori; conditions: vs fetuin
[5] = system: H. pylori binding to an erythrocyte receptor; conditions: cited from earlier work; for hemagglutination inhibition (in words): vs NeuAc(2→6)-lactose / NeuAc(2→3)-lactose
[6] = in words; cited from earlier work
[7] = system: H. pylori; conditions: in words; cited from earlier work
[8] = system: H. pylori; conditions: material treated with neuraminidase; cited from earlier work
[9] = system: Y-1 mouse adrenal cells; conditions: in words; cited from earlier work

Work on OC[C@H]1O[C@@H](O[C@H]2[C@H](O)[C@@H](O)C(O)O[C@@H]2CO)[C@H](O)[C@@H](O)[C@H]1O (stereo partly drawn) [lactose, reference compound] yielded an IC50 [1] of over 10 mM.

For gangliotetraosylceramide, the “recognition by H. pylori” value [2] is given as “specifically recognizes”.

In the case of CC(=O)N[C@H]1[C@H]([C@H](O)[C@H](O)CO)O[C@@](O[C@H]2[C@@H](O)[C@@H](CO)O[C@@H](O[C@H]3[C@H](O)[C@@H](O)C(O)O[C@@H]3CO)[C@@H]2O)(C(=O)O)C[C@@H]1O (stereo partly drawn) [3' sialyl lactose, N-acetylneuraminyl-α(2→3)-Gal β1→4 Glc], the IC50 [1] is reported as 6 mM, the “activity in inhibiting binding of H. pylori cells, in vitro” value [1] is reported as “surprisingly strongly inhibits H. pylori” and the “bacterial colonies, colony forming units/gram of gastric epithelium, mean ± SD” value ([3]; Experiments A and B together) is reported as 6.9 ± 5.9 CFU/g. For the same molecule, the “H. pylori binding inhibition in mammals” value ([3]; in words, validated through in vivo mammalian test data) was “surprisingly effective inhibitor”, the “bacterial colonies, colony forming units/gram of gastric epithelium, Experiment A” value ([3]; six day old piglets, oral, seven doses of 100 mg, 8 hour intervals, 2×10^9 live H. pylori, individual animals) was 5.44 CFU/g and 0 CFU/g and the “bacterial colonies, colony forming units/gram of gastric epithelium, Experiment B” value ([3]; twenty one day old piglets, oral, seven doses of 100 mg, 8 hour intervals, 4×10^9 live H. pylori, individual animals) was 4.46 CFU/g and 25.5 CFU/g and 3.71 CFU/g and 2.48 CFU/g. For the same molecule, the “times more effective at inhibiting Helicobacter pylori than fetuin” value [4] was “more than 6.41 times” and the “hemagglutination inhibition (in words)” value [5] was “preferentially inhibited”.

In the case of “Colloidal bismuth subcitrate [Colloidal bismuth subcitrate (CBS)]”, the “effectiveness as a histamine H2 antagonist” value [6] is given as “effective as a histamine H2 antagonist”, the “eradication of H. pylori” value [7] is given as “ability to eradicate H. pylori” and the “relapse rates after cessation of therapy” value [7] is given as “lower relapse rates”.

For “α2 -Macroglobulin: Sialoprotein which contains the NeuAc(2→3)Gal isomer of NeuAc-lactose”, the “concentration needed to produce 100% HAI” value ([5]; hemagglutination inhibition) is given as 1.000 mg/mL and the “hemagglutination inhibition (in words)” value [5] is given as “also inhibited H. pylori binding, but at higher concentrations”.

For “N-acetylneuraminyllactose [reference compound]”, the “decrease in MFI upon neuraminidase treatment” value (from here on “decrease”) [8] is given as 16.8%.

For phosphatidylethanolamine, the “recognition by H. pylori” value [2] is given as “receptor; also recorded: specifically recognizes”.

For asialofetuin: asialofetuin, the “decrease” value [8] is given as 8.6%.

In the case of gangliotriaosylceramide, the “recognition by H. pylori” value [2] is listed as “specifically recognizes”.

With “#3: fraction # 3 corresponds with pure fetuin” the “IC50, Expt C” value ([1]; HuTu-80, fetuin fraction, Expt C) was 1.3 mg/mL.

In the case of “fetuin: Sialoprotein which contains the NeuAc(2→3)Gal isomer of NeuAc-lactose”, the “activity in inhibiting binding of H. pylori cells, in vitro” value [1] is listed as “minimal activity”, the “concentration needed to produce 100% HAI” value ([5]; hemagglutination inhibition) is listed as 0.500 mg/mL and the “times as effective as bovine NeuAc-lactose” value ([5]; hemagglutination inhibition) is listed as 0.156 times. The “times as effective as α2-Macroglobulin” value ([5]; hemagglutination inhibition) was “about 2 times”, the “hemagglutination inhibition (in words)” value [5] was “also inhibited H. pylori binding, but at higher concentrations” and the “adherence to Y-1 cells” value [9] was “blocked”. The “decrease” value [8] was 29.8%.

With CC(=O)N[C@H]1[C@H]([C@H](O)[C@H](O)CO)O[C@@](OC[C@H]2O[C@@H](O[C@H]3[C@H](O)[C@@H](O)C(O)O[C@@H]3CO)[C@H](O)[C@@H](O)[C@H]2O)(C(=O)O)C[C@@H]1O (stereo partly drawn) [6' sialyl lactose, N-acetylneuraminyl-α(2→6)-Gal β1→4 Glc, reference compound] the IC50 [1] was over 10 mM.

B1: Glycophorin A: Sialoprotein which contains the NeuAc(2→3)Gal isomer of NeuAc-lactose (protein, UniProt P02724 20-150, looked up)
Glycophorin-A: LSTTEVAMHTSTSSSVTKSYISSQTNDTHKRDTYAATPRAHEVSEISVRTVYPPEEETGERVQLAHHFSEPEITLIIFGVMAGVIGTILLISYGIRRLIKKSPSDVKPLPSPDTDVPLSSVEIENPETSDQ
In the case of B1, the “concentration needed to produce 100% HAI” value ([5]; hemagglutination inhibition) is given as 0.250 mg/mL and the “hemagglutination inhibition (in words)” value [5] is given as “also inhibited H. pylori binding, but at higher concentrations”.
